Measurements reported in the kinase profiling compilation of Christmann-Franck et al. (2016).

How the values were obtained:
Assay in all cases: radiometric filter-binding kinase assay
[1] = tested on: AKT2 (human), P31751 [S474D]
BRSK1 (human) = BRSK1 (human) (UniProt Q8TDC3)
CAMKK2 (human) = CAMKK2 (human) (UniProt Q96RR4)
CLK2 (human) = CLK2 (human) (UniProt P49760)
CSK (human) = CSK (human) (UniProt P41240)
CSNK1D (human) = CSNK1D (human) (UniProt P48730)
DYRK3 (human) = DYRK3 (human) (UniProt O43781)
EPHA2 (human) = EPHA2 (human) (UniProt P29317)
FGFR1 (human) = FGFR1 (human) (UniProt P11362)
FLT1 (human) = FLT1 (human) (UniProt P17948)
GSK3B (human) = GSK3B (human) (UniProt P49841)
HIPK1 (human) = HIPK1 (human) (UniProt Q86Z02)
HIPK3 (human) = HIPK3 (human) (UniProt Q9H422)
IGF1R (human) = IGF1R (human) (UniProt P08069)
INSR (human) = INSR (human) (UniProt P06213)
IRAK4 (human) = IRAK4 (human) (UniProt Q9NWZ3)
JAK2 JH1 JH2 (human) = JAK2 JH1 JH2 (human) (UniProt O60674)
LCK (mouse) = settings: accession and sequence are those of the human protein
MAP3K1 (human) = MAP3K1 (human) (UniProt Q13233)
MAP3K7 TAB1 (human) = MAP3K7 TAB1 (human) (UniProt Q15750+O43318)
MAPK11 (human) = MAPK11 (human) (UniProt Q15759)
MAPK14 (human) = MAPK14 (human) (UniProt Q16539)
MAPK15 (human) = MAPK15 (human) (UniProt Q8TD08)
MAPKAPK5 (human) = MAPKAPK5 (human) (UniProt Q8IW41)
MARK1 (human) = MARK1 (human) (UniProt Q9P0L2)
MELK (human) = MELK (human) (UniProt Q14680)
MINK1 (human) = MINK1 (human) (UniProt Q8N4C8)
NTRK1 (human) = NTRK1 (human) (UniProt P04629)
PRKCZ (human) = PRKCZ (human) (UniProt Q05513)
RIPK2 (human) = RIPK2 (human) (UniProt O43353)
ROCK2 (rat) = settings: accession and sequence are those of the human protein
RPS6KA3 KD1 KD2 (human) = RPS6KA3 KD1 KD2 (human) (UniProt P51812)
SRC (human) = SRC (human) (UniProt P12931)
[2] = target: STK11 CAB39 STRADA (human) (UniProt Q9Y376+Q7RTN6+Q15831)
TAOK1 (human) = TAOK1 (human) (UniProt Q7L7X3)
Sequence of TAOK1 (human) (Q7L7X3 whole entry, looked up): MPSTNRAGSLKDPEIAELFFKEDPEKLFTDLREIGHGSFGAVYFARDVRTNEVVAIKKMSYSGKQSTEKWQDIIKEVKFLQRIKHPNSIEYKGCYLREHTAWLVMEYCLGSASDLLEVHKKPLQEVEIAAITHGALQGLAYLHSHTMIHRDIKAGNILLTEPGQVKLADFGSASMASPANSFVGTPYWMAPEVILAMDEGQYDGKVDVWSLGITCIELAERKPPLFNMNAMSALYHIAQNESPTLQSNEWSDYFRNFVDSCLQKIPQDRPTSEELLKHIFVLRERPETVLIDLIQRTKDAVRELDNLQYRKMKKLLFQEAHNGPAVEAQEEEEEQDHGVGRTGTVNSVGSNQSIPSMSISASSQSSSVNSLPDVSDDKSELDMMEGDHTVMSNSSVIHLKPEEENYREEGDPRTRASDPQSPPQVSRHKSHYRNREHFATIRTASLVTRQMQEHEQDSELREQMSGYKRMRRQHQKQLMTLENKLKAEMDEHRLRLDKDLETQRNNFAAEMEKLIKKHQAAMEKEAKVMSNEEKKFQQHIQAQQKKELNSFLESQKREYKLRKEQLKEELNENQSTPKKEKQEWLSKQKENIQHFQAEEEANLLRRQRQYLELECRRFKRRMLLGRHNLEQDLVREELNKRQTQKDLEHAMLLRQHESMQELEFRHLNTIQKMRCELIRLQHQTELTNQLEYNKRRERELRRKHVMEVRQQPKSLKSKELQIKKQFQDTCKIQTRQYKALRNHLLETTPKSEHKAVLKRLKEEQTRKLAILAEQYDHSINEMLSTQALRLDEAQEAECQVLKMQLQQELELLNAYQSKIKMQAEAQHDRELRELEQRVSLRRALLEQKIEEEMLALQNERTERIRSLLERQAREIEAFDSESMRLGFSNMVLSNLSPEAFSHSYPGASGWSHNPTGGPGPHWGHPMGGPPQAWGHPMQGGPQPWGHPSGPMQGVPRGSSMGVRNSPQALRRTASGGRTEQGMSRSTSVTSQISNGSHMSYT

Sequence of DYRK3 (human) (O43781 whole entry, looked up): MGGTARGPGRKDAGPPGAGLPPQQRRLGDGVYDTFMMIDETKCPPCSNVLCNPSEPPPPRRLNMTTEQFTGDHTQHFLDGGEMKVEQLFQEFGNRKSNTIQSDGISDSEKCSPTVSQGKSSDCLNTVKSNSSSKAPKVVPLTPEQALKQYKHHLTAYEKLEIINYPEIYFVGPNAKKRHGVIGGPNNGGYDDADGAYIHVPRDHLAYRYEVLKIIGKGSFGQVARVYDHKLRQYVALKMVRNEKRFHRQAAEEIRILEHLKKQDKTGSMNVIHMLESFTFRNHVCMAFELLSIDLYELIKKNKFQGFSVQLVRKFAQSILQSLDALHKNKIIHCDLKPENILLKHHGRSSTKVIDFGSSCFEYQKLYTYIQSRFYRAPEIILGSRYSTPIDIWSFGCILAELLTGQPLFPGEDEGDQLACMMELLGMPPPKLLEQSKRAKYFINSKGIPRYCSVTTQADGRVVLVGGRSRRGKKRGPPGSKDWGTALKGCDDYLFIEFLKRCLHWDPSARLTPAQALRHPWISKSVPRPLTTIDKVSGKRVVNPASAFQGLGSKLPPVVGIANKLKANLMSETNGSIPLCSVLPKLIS
Sequence of FLT1 (human) (P17948 whole entry, looked up): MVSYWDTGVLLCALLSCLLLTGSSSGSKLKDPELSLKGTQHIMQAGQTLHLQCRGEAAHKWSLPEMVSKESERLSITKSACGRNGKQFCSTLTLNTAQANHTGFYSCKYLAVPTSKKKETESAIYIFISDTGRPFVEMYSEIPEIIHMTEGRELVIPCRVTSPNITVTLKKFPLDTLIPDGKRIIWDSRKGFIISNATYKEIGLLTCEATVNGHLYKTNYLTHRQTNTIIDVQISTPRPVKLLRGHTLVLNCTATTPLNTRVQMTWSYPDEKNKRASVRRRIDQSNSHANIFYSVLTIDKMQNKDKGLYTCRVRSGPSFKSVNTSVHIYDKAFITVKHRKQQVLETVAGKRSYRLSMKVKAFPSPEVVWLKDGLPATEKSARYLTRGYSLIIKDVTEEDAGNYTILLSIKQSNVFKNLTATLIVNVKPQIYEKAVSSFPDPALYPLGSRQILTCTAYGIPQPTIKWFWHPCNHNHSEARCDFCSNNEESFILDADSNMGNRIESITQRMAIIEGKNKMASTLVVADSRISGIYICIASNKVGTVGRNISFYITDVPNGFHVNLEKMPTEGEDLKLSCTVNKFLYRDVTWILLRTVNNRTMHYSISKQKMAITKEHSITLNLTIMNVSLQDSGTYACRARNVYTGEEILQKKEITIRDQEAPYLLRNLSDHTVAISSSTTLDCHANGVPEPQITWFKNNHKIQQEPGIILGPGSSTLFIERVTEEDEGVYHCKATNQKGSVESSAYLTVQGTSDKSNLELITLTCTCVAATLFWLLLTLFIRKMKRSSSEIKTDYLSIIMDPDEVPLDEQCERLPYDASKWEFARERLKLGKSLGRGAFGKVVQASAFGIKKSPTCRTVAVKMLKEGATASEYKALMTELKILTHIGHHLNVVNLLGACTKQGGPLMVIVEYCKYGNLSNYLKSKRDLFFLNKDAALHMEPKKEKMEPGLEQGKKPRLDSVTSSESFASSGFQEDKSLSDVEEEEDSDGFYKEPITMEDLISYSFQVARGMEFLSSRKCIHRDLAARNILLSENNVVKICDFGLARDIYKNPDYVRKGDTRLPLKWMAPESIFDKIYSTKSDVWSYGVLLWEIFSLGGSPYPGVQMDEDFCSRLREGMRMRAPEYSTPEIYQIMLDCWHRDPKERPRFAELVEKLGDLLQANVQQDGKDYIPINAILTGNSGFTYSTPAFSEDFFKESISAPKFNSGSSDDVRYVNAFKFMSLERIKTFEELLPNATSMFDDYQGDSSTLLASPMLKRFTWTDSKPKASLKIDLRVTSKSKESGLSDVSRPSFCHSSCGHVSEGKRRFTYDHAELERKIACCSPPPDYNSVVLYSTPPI
Sequence of MARK1 (human) (Q9P0L2 whole entry, looked up): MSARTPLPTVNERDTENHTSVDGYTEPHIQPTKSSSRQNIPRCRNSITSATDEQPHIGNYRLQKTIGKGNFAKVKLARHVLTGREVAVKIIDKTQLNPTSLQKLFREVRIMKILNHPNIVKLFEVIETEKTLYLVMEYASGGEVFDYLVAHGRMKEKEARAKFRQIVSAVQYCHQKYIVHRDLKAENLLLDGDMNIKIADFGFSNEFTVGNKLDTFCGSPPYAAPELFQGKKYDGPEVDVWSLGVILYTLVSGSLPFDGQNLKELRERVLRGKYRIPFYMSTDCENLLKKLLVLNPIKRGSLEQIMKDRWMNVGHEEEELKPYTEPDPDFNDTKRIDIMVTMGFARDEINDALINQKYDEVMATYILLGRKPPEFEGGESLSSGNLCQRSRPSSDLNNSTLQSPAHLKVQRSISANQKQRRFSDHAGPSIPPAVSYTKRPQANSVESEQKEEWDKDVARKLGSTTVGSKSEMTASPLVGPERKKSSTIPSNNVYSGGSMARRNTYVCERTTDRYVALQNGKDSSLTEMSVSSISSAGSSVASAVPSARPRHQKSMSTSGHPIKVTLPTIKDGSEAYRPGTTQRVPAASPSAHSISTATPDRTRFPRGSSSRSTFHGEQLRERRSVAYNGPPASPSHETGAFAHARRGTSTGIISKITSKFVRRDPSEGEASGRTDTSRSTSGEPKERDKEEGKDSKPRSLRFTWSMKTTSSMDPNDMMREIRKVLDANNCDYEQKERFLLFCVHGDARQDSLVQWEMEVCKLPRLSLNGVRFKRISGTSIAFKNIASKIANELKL
Sequence of MAPK15 (human) (Q8TD08 whole entry, looked up): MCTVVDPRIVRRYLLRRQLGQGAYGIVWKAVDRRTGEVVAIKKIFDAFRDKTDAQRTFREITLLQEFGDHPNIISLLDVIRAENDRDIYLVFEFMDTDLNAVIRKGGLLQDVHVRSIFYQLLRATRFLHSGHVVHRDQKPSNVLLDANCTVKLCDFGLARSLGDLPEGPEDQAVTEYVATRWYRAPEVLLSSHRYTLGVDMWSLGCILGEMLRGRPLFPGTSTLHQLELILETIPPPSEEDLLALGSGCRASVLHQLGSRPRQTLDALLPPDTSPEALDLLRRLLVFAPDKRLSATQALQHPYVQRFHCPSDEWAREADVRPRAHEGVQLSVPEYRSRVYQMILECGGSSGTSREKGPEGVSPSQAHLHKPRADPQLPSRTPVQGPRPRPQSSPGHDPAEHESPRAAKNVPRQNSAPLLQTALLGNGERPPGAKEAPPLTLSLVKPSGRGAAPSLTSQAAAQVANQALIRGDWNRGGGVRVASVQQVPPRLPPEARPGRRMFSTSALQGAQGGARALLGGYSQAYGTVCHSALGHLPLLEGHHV
Sequence of AKT2 (human), P31751 [S474D] (P31751 whole entry S474D, looked up): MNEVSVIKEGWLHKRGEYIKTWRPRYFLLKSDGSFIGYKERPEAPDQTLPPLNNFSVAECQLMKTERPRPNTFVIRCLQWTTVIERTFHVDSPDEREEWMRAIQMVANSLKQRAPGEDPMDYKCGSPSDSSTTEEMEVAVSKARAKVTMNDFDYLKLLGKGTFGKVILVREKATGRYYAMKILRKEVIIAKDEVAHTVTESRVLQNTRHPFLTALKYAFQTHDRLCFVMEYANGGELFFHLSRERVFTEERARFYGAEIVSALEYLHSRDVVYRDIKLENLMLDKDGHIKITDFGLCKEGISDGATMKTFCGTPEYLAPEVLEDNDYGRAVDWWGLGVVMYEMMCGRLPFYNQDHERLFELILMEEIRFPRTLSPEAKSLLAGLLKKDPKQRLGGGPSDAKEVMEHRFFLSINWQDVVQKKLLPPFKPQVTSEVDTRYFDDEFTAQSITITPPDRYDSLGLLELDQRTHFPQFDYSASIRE

CNC(=O)C1[C@H]2O[C@@](C)([C@@H]1N)n1c3ccccc3c3c4c(c5c6ccccc6n2c5c31)C(=O)NC4 (some centres undefined)
residual activity ([1]; compound 0.01 µM): 109% | residual activity ([1]; compound 0.1 µM): 51% | residual activity ([1]; compound 1.0 µM): 8% | residual activity (BRSK1 (human); compound 0.01 µM): 61% | residual activity (BRSK1 (human); compound 0.1 µM): 3% | residual activity (BRSK1 (human); compound 1.0 µM): 1% | residual activity (CAMKK2 (human); compound 0.01 µM): 64% | residual activity (CAMKK2 (human); compound 0.1 µM): 14% | residual activity (CAMKK2 (human); compound 1.0 µM): 11% | residual activity (CLK2 (human); compound 0.01 µM): 9% | residual activity (CLK2 (human); compound 0.1 µM): -1% | residual activity (CLK2 (human); compound 1.0 µM): -1% | residual activity (CSK (human); compound 0.01 µM): 112% | residual activity (CSK (human); compound 0.1 µM): 73% | residual activity (CSK (human); compound 1.0 µM): 20% | residual activity (CSNK1D (human); compound 0.01 µM): 109% | residual activity (CSNK1D (human); compound 0.1 µM): 107% | residual activity (CSNK1D (human); compound 1.0 µM): 96% | residual activity (DYRK3 (human); compound 0.01 µM): 24% | residual activity (DYRK3 (human); compound 0.1 µM): 4% | residual activity (DYRK3 (human); compound 1.0 µM): 2% | residual activity (EPHA2 (human); compound 0.01 µM): 92% | residual activity (EPHA2 (human); compound 0.1 µM): 53% | residual activity (EPHA2 (human); compound 1.0 µM): 19% | residual activity (FGFR1 (human); compound 0.01 µM): 53% | residual activity (FGFR1 (human); compound 0.1 µM): 22% | residual activity (FGFR1 (human); compound 1.0 µM): 3% | residual activity (FLT1 (human); compound 0.01 µM): 17% | residual activity (FLT1 (human); compound 0.1 µM): 13% | residual activity (FLT1 (human); compound 1.0 µM): 4% | residual activity (GSK3B (human); compound 0.01 µM): 51% | residual activity (GSK3B (human); compound 0.1 µM): 15% | residual activity (GSK3B (human); compound 1.0 µM): 7% | residual activity (HIPK1 (human); compound 0.01 µM): 98% | residual activity (HIPK1 (human); compound 0.1 µM): 82% | residual activity (HIPK1 (human); compound 1.0 µM): 22% | residual activity (HIPK3 (human); compound 0.01 µM): 83% | residual activity (HIPK3 (human); compound 0.1 µM): 43% | residual activity (HIPK3 (human); compound 1.0 µM): 10% | residual activity (IGF1R (human); compound 0.01 µM): 87% | residual activity (IGF1R (human); compound 0.1 µM): 64% | residual activity (IGF1R (human); compound 1.0 µM): 3% | residual activity (INSR (human); compound 0.01 µM): 120% | residual activity (INSR (human); compound 0.1 µM): 76% | residual activity (INSR (human); compound 1.0 µM): 11% | residual activity (IRAK4 (human); compound 0.01 µM): 7% | residual activity (IRAK4 (human); compound 0.1 µM): 7% | residual activity (IRAK4 (human); compound 1.0 µM): 4% | residual activity (JAK2 JH1 JH2 (human); compound 0.01 µM): 10% | residual activity (JAK2 JH1 JH2 (human); compound 0.1 µM): 12% | residual activity (JAK2 JH1 JH2 (human); compound 1.0 µM): 7% | residual activity (LCK (mouse); compound 0.01 µM): 44% | residual activity (LCK (mouse); compound 0.1 µM): 13% | residual activity (LCK (mouse); compound 1.0 µM): 3% | residual activity (MAP3K1 (human); compound 0.01 µM): 97% | residual activity (MAP3K1 (human); compound 0.1 µM): 78% | residual activity (MAP3K1 (human); compound 1.0 µM): 23% | residual activity (MAP3K7 TAB1 (human); compound 0.01 µM): 111% | residual activity (MAP3K7 TAB1 (human); compound 0.1 µM): 2% | residual activity (MAP3K7 TAB1 (human); compound 1.0 µM): 2% | residual activity (MAPK11 (human); compound 0.01 µM): 108% | residual activity (MAPK11 (human); compound 0.1 µM): 96% | residual activity (MAPK11 (human); compound 1.0 µM): 79% | residual activity (MAPK14 (human); compound 0.01 µM): 106% | residual activity (MAPK14 (human); compound 0.1 µM): 109% | residual activity (MAPK14 (human); compound 1.0 µM): 105% | residual activity (MAPK15 (human); compound 0.01 µM): 48% | residual activity (MAPK15 (human); compound 0.1 µM): 8% | residual activity (MAPK15 (human); compound 1.0 µM): 11% | residual activity (MAPKAPK5 (human); compound 0.01 µM): 81% | residual activity (MAPKAPK5 (human); compound 0.1 µM): 15% | residual activity (MAPKAPK5 (human); compound 1.0 µM): 2% | residual activity (MARK1 (human); compound 0.01 µM): 11% | residual activity (MARK1 (human); compound 0.1 µM): 5% | residual activity (MARK1 (human); compound 1.0 µM): 5% | residual activity (MELK (human); compound 0.01 µM): 18% | residual activity (MELK (human); compound 0.1 µM): 10% | residual activity (MELK (human); compound 1.0 µM): 5% | residual activity (MINK1 (human); compound 0.01 µM): 4% | residual activity (MINK1 (human); compound 0.1 µM): 3% | residual activity (MINK1 (human); compound 1.0 µM): 2% | residual activity (NTRK1 (human); compound 0.01 µM): 5% | residual activity (NTRK1 (human); compound 0.1 µM): 3% | residual activity (NTRK1 (human); compound 1.0 µM): 2% | residual activity (PRKCZ (human); compound 0.01 µM): 110% | residual activity (PRKCZ (human); compound 0.1 µM): 56% | residual activity (PRKCZ (human); compound 1.0 µM): 15% | residual activity (RIPK2 (human); compound 0.01 µM): 80% | residual activity (RIPK2 (human); compound 0.1 µM): 26% | residual activity (RIPK2 (human); compound 1.0 µM): 9% | residual activity (ROCK2 (rat); compound 0.01 µM): 82% | residual activity (ROCK2 (rat); compound 1.0 µM): 7% | residual activity (RPS6KA3 KD1 KD2 (human); compound 0.01 µM): 16% | residual activity (RPS6KA3 KD1 KD2 (human); compound 0.1 µM): 7% | residual activity (RPS6KA3 KD1 KD2 (human); compound 1.0 µM): 6% | residual activity (SRC (human); compound 0.01 µM): 78% | residual activity (SRC (human); compound 0.1 µM): 19% | residual activity (SRC (human); compound 1.0 µM): 6% | residual activity ([2]; compound 0.01 µM): 103% | residual activity ([2]; compound 0.1 µM): 50% | residual activity ([2]; compound 1.0 µM): 35% | residual activity (TAOK1 (human); compound 0.01 µM): 53% | residual activity (TAOK1 (human); compound 0.1 µM): 15% | residual activity (TAOK1 (human); compound 1.0 µM): 7%
